Measurements as given in patent US20050054555A1, “Kahalalide compounds for use in cancer therapy” (priority 2001, published 2005).
Entries after “also recorded” stand apart in the source; their conditions may differ.

Experiments:
[1] = Phase I trial KHF-A-001-00: plasma pharmacokinetics (LC-MS/MS); type: in vivo, human
Description: Bioanalysis of KF was performed by LC-MS/MS.

[2] = tested on: patients with solid tumours; test: Phase I trial KHF-A-002-01: safety of Kahalalide F weekly infusion over 1 hour; type: in vivo, human
Description: (§1) The rate of subject entry and escalation to the next dose level will depend upon assessment of the safety profile of patients entered at each dose level. Toxicity will be evaluated and graded according to the Common Toxicity Criteria, version 2.0.
In order to minimize the number of patients treated at the subtoxic dose levels, a single patient will be treated per dose level with 100% dose escalation in the absence of any toxicity G2 (excluding alopecia) during their first course of treatment. After the occurrence of grade 2 toxicity (excluding asthenia, alopecia, nausea and vomiting or anemia), the dose level is expanded to three patients with only 50% incremental increase in dosage in advancing to the next dose level. For the occurrence of grade 3 non-hematological toxic effects the dose level should be expanded up to six patients. This second cohort of 3 patients will be included consecutively. If the first or second patient develops dose limiting toxicities no further patients will be treated at this dose level, it will be defined as MTD and the accrual will begin at a lower dose level. If only one DLT occurs at this dose level another 3 patients will be included at the next dose level with an increase of 25% only.
The maximum tolerated dose (MTD) is defined as the dose at which at least 2 out of 3 or more than 3 patients experience DLT. However, it is possible that additional patients may experience DLT due to the timing of patient enrollment into that dose level.
The toxicity will be evaluated and clasified in grades according to the Common Toxicity Criteria (CTC) version NCI 2.0, March 1998.
Dose Limiting Toxicities (DLTs) are Defined as Follows: […]
ANC <500/mm3 for more than 5 days.
ANC <500/mm3 with a temperature of 38'5 or more.
Any other non-hematological grade 3-4 toxicity excluding: nausea, emesis without prophilaxis
G3 transaminases increase >14 days
Hypersensibility reactions

solid tumours = tested on: solid tumours
Description: KHF-A-002-01. Phase I Clinical and Pharmacokinetic study to determine the safety of Kahalalide F administered as a weekly infusion over 1 hour in patients with solid tumours.
This trial was addressed to any solid tumours and was designed as a classical escalation. […] One cycle in this trial means a week, so 4 cycles mean 1 month of treatment.

[3] = tested on: human patients afflicted with cancer; test: Clinical programme (both phase I trials): toxicity summary; type: in vivo
Description: Clinical trials were carried out based on the following protocols:
as §1

female mice = details: single bolus iv injection; cited from earlier work
[4] = weekly 1 h infusion, all dose levels
[5] = weekly 1 h infusion, all dose levels, 19 patients evaluated
[6] = weekly 1 h infusion, all dose levels, head prints 20 patients
[7] = 400 mcg/m2 weekly, 6 months (24 cycles)

C/C=C1\NC(=O)[C@H](Cc2ccccc2)NC(=O)[C@@H](C(C)C)NC(=O)[C@@H](C(C)CC)NC(=O)[C@H](NC(=O)C(NC(=O)[C@H](CCCN)NC(=O)[C@H]2CCCN2C(=O)[C@H](NC(=O)[C@@H](NC(=O)[C@@H](NC(=O)[C@H](NC(=O)CCCC(C)C)C(C)C)C(C)O)C(C)C)C(C)C)C(C)CC)C(C)OC(=O)[C@H](C(C)C)NC1=O (single isomer, unassigned) [kahalalide F]
Maximum plasma concentrations ([1]; dose level 320 μg/m2/day): 35 to 50 ng/mL
clearance ([1]; male, human, plasma, iv infusion over 1 h, 5 consecutive days every 3 weeks, first course, 20-320 μg/m2/day, read-out: Total plasma clearance): 267 mL/min
half-life ([1]; male, human, plasma, iv infusion over 1 h, 5 consecutive days every 3 weeks, first course, read-out: terminal half-life (converted)): 27.6 min
relationship between dose and AUC ([1]; whole dose range 20-320 μg/m2/day): linear relationship
incidence of grade 4 hypertransaminasemia ([2]; 800-1200 mcg/m2/wk): all the patients had grade 4 hypertransaminasemia
time of onset of grade 4 hypertransaminasemia after the infusion ([2]; 1200 mcg/m2 weekly): 5 h
Worst toxicity ([2]; Level VI, dose 1000 weekly, 3 patients): Hypersensitivity; also recorded: hypertrans
Bronchoconstriction observed ([2]; highest dose level (1000 and 1200)): two patients
reversibility of hypertransaminasemia overall ([2]; patients remained asymptomatic): completely reversible
reversibility of hypertransaminasemia ([2]; patients treated at 1000 and 1200): not reversible by day 8
dose at which the DLT (grade 4 hypertransaminasemia non reversible by day 21) was identified ([2]; weekly 1 h infusion): 1200 mcg/m2
Nonhematologic toxicity, laboratory abnormalities: Alk. phosphatase, Grade 1 [2, 4]: 27.8
Nonhematologic toxicity, laboratory abnormalities: Alk. phosphatase, Grade 2 [2, 4]: 11.1
Nonhematologic toxicity, laboratory abnormalities: Alk. phosphatase, Grade 3 [2, 4]: 0
Nonhematologic toxicity, laboratory abnormalities: Alk. phosphatase, Grade 4 [2, 4]: 0
Nonhematologic toxicity, laboratory abnormalities: Bilirubin, Grade 1 [2, 4]: 5.6
Nonhematologic toxicity, laboratory abnormalities: Bilirubin, Grade 2 [2, 4]: 0
Nonhematologic toxicity, laboratory abnormalities: Bilirubin, Grade 3 [2, 4]: 0
Nonhematologic toxicity, laboratory abnormalities: Bilirubin, Grade 4 [2, 4]: 0
Nonhematologic toxicity, laboratory abnormalities: CPK, Grade 1 [2, 4]: 36.8
Nonhematologic toxicity, laboratory abnormalities: CPK, Grade 2 [2, 4]: 0
Nonhematologic toxicity, laboratory abnormalities: CPK, Grade 3 [2, 4]: 0
Nonhematologic toxicity, laboratory abnormalities: CPK, Grade 4 [2, 4]: 0
Nonhematologic toxicity, laboratory abnormalities: Ca++ hyper, Grade 1 [2, 4]: 84.2
Nonhematologic toxicity, laboratory abnormalities: Ca++ hyper, Grade 2 [2, 4]: 0
Nonhematologic toxicity, laboratory abnormalities: Ca++ hyper, Grade 3 [2, 4]: 0
Nonhematologic toxicity, laboratory abnormalities: Ca++ hyper, Grade 4 [2, 4]: 0
Nonhematologic toxicity, laboratory abnormalities: Ca++ hypo, Grade 1 [2, 4]: 21.1
Nonhematologic toxicity, laboratory abnormalities: Ca++ hypo, Grade 2 [2, 4]: 0
Nonhematologic toxicity, laboratory abnormalities: Ca++ hypo, Grade 3 [2, 4]: 0
Nonhematologic toxicity, laboratory abnormalities: Ca++ hypo, Grade 4 [2, 4]: 0
Nonhematologic toxicity, laboratory abnormalities: Creatinine, Grade 1 [2, 4]: 31.6
Nonhematologic toxicity, laboratory abnormalities: Creatinine, Grade 2 [2, 4]: 5.3
Nonhematologic toxicity, laboratory abnormalities: Creatinine, Grade 3 [2, 4]: 0
Nonhematologic toxicity, laboratory abnormalities: Creatinine, Grade 4 [2, 4]: 0
Nonhematologic toxicity, laboratory abnormalities: GGT, Grade 1 [2, 4]: 16.7
Nonhematologic toxicity, laboratory abnormalities: GGT, Grade 2 [2, 4]: 11.1
Nonhematologic toxicity, laboratory abnormalities: GGT, Grade 3 [2, 4]: 5.6
Nonhematologic toxicity, laboratory abnormalities: GGT, Grade 4 [2, 4]: 11.1
Nonhematologic toxicity, laboratory abnormalities: GOT, Grade 1 [2, 4]: 38.9
Nonhematologic toxicity, laboratory abnormalities: GOT, Grade 2 [2, 4]: 0
Nonhematologic toxicity, laboratory abnormalities: GOT, Grade 3 [2, 4]: 0
Nonhematologic toxicity, laboratory abnormalities: GOT, Grade 4 [2, 4]: 16.7
Nonhematologic toxicity, laboratory abnormalities: GPT, Grade 1 [2, 4]: 22.2
Nonhematologic toxicity, laboratory abnormalities: GPT, Grade 2 [2, 4]: 5.6
Nonhematologic toxicity, laboratory abnormalities: GPT, Grade 3 [2, 4]: 0
Nonhematologic toxicity, laboratory abnormalities: GPT, Grade 4 [2, 4]: 16.7
Nonhematologic toxicity, laboratory abnormalities: K+ hypo, Grade 1 [2, 4]: 5.3
Nonhematologic toxicity, laboratory abnormalities: K+ hypo, Grade 2 [2, 4]: 0
Nonhematologic toxicity, laboratory abnormalities: K+ hypo, Grade 3 [2, 4]: 0
Nonhematologic toxicity, laboratory abnormalities: K+ hypo, Grade 4 [2, 4]: 0
Nonhematologic toxicity, laboratory abnormalities: Na+ hypo, Grade 1 [2, 4]: 21.1
Nonhematologic toxicity, laboratory abnormalities: Na+ hypo, Grade 2 [2, 4]: 0
Nonhematologic toxicity, laboratory abnormalities: Na+ hypo, Grade 3 [2, 4]: 0
Nonhematologic toxicity, laboratory abnormalities: Na+ hypo, Grade 4 [2, 4]: 5.3
Hematologic toxicity (worst per patient): Hemoglobin, Grade 1 [2, 5]: 57.9
Hematologic toxicity (worst per patient): Hemoglobin, Grade 2 [2, 5]: 21.1
Hematologic toxicity (worst per patient): Hemoglobin, Grade 3 [2, 5]: 0
Hematologic toxicity (worst per patient): Hemoglobin, Grade 4 [2, 5]: 0
Hematologic toxicity (worst per patient): Leukocytes, Grade 1 [2, 5]: 15.8
Hematologic toxicity (worst per patient): Leukocytes, Grade 2 [2, 5]: 5.3
Hematologic toxicity (worst per patient): Leukocytes, Grade 3 [2, 5]: 0
Hematologic toxicity (worst per patient): Leukocytes, Grade 4 [2, 5]: 0
Hematologic toxicity (worst per patient): Neutrophils, Grade 1 [2, 5]: 5.3
Hematologic toxicity (worst per patient): Neutrophils, Grade 2 [2, 5]: 5.3
Hematologic toxicity (worst per patient): Neutrophils, Grade 3 [2, 5]: 0
Hematologic toxicity (worst per patient): Neutrophils, Grade 4 [2, 5]: 0
Hematologic toxicity (worst per patient): Platelets, Grade 1 [2, 5]: 10.5
Hematologic toxicity (worst per patient): Platelets, Grade 2 [2, 5]: 0
Hematologic toxicity (worst per patient): Platelets, Grade 3 [2, 5]: 0
Hematologic toxicity (worst per patient): Platelets, Grade 4 [2, 5]: 0
Most frequently reported non-hematologic toxicities: Diarrhea, Grade 1 [2, 6]: 0
Most frequently reported non-hematologic toxicities: Diarrhea, Grade 2 [2, 6]: 5.3
Most frequently reported non-hematologic toxicities: Diarrhea, Grade 3 [2, 6]: 5.3
Most frequently reported non-hematologic toxicities: Diarrhea, Grade 4 [2, 6]: 0
Most frequently reported non-hematologic toxicities: Fatigue, Grade 1 [2, 6]: 21.1
Most frequently reported non-hematologic toxicities: Fatigue, Grade 2 [2, 6]: 21.1
Most frequently reported non-hematologic toxicities: Fatigue, Grade 3 [2, 6]: 0
Most frequently reported non-hematologic toxicities: Fatigue, Grade 4 [2, 6]: 0
Most frequently reported non-hematologic toxicities: Hypersensitivity, Grade 1 [2, 6]: 15.8
Most frequently reported non-hematologic toxicities: Hypersensitivity, Grade 2 [2, 6]: 5.3
Most frequently reported non-hematologic toxicities: Hypersensitivity, Grade 3 [2, 6]: 5.3
Most frequently reported non-hematologic toxicities: Hypersensitivity, Grade 4 [2, 6]: 0
Most frequently reported non-hematologic toxicities: Hypertension, Grade 1 [2, 6]: 0
Most frequently reported non-hematologic toxicities: Hypertension, Grade 2 [2, 6]: 0
Most frequently reported non-hematologic toxicities: Hypertension, Grade 3 [2, 6]: 0
Most frequently reported non-hematologic toxicities: Hypertension, Grade 4 [2, 6]: 0
Most frequently reported non-hematologic toxicities: Inject-site reaction, Grade 1 [2, 6]: 0
Most frequently reported non-hematologic toxicities: Inject-site reaction, Grade 2 [2, 6]: 5.3
Most frequently reported non-hematologic toxicities: Inject-site reaction, Grade 3 [2, 6]: 0
Most frequently reported non-hematologic toxicities: Inject-site reaction, Grade 4 [2, 6]: 0
Most frequently reported non-hematologic toxicities: Nausea, Grade 1 [2, 6]: 31.6
Most frequently reported non-hematologic toxicities: Nausea, Grade 2 [2, 6]: 10.5
Most frequently reported non-hematologic toxicities: Nausea, Grade 3 [2, 6]: 0
Most frequently reported non-hematologic toxicities: Nausea, Grade 4 [2, 6]: 0
Most frequently reported non-hematologic toxicities: Periph-sens neuro, Grade 1 [2, 6]: 36.8
Most frequently reported non-hematologic toxicities: Periph-sens neuro, Grade 2 [2, 6]: 0
Most frequently reported non-hematologic toxicities: Periph-sens neuro, Grade 3 [2, 6]: 5.3
Most frequently reported non-hematologic toxicities: Periph-sens neuro, Grade 4 [2, 6]: 0
Most frequently reported non-hematologic toxicities: Vomiting, Grade 1 [2, 6]: 10.5
Most frequently reported non-hematologic toxicities: Vomiting, Grade 2 [2, 6]: 5.3
Most frequently reported non-hematologic toxicities: Vomiting, Grade 3 [2, 6]: 0
Most frequently reported non-hematologic toxicities: Vomiting, Grade 4 [2, 6]: 0
dose limiting toxicity ([2]; weekly schedule): grade 4 hypertransaminasemia
time of hypertransaminasemia peak/appearance after the infusion ([2]; weekly schedule): 4 to 5 h
overall response in a patient with hepatocellular carcinoma (solid tumours; [7]): stable disease
response in a patient with hepatocellular carcinoma (target lesion) (solid tumours; [7]): Partial response in one target lesion
efficacy in a patient with epidermoid carcinoma of the cavum (solid tumours; 400 mcg/m2 weekly, ORL exploration): Subjective improvement and non evaluable response
efficacy in a patient with non small cell lung cancer (solid tumours; 530 mcg/m2 weekly, 4 months (16 infusions)): without evidence of progression disease
Efficacy (tumour type with hints of efficacy) (solid tumours; Level III, dose 530 weekly): NSCLC
efficacy in one patient with peritoneal mesothelioma (solid tumours; weekly schedule): clinical benefit with reduction of ascytes volume
Grade 1-2 neutropenia, share of patients [3]: 10%
Grade 1 hypokalyemia, share of patients [3]: 20%
grade 1 hypophosphatemia, share of patients [3]: 10%
grade 1 renal toxicity, share of patients [3]: about 35%
grade 2 hypophosphatemia, share of patients [3]: 15%
grade 3-4 hematologic toxicities [3]: No grade 3-4 toxicities were reported
concentration from which active in the clonogenic tumour assay (prostate cancer): ≥ 15 ng/mL
maximum tolerated dose (MTD) (female mice): 0.28 mg/kg
